In experiment [1] the test system is blood-glucose concentration. The experiment in a line: Decrease in blood-glucose concentration in rats after oral dose (Table 1; ED30 rats Table 2). Type of experiment: in vivo. As to conditions: Rattus norvegicus, oral, read-out: Effective oral doses ED30. A digest of the protocol:
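Compounds were dosed orally to rats, and blood glucose was measured enzymatically with glucose oxidase. Effects are expressed as decrease in blood glucose, with ED30 as the dose effective for a 30% reduction.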

The subject of experiment [2] is oxidizing phosphorylation in mitochondria of a rat's liver. The experiment in a line: Oxidizing phosphorylation of rat liver mitochondria. Type of experiment: biochemical. As to the method:
2-oxoglutaran 2 mM, ADP 1 mM, mitochondria | protein 4 mg/m. […] The | oxidizing phosphorylation speed was determined by means of the measuremen | of hydrogen ion consumption. The calcium transmission to mitochondria was […]

For experiment [3], the system named is glucose concentration. The experiment in a line: Blood glucose in normal men volunteers (Table 7). It counts as in vivo. As to conditions: for decrease in blood-glucose vs starting value: 5 mg oral; for Glucose concentration: oral 5 mg SPC-5002 or 12.5 mg Glibornuride. As for the experimental part:
The hypoglycemic activity of N-{4-[2-(pyrazole-1-carbonamide)-ethyl]-benzenesulphonyl}-ureas prepared according to the present invention can be noticed after their oral administration to mice, rats, rabbits and people and when determining the glucose concentration in blood with a known enzymatic method using glucose oxidase.
When administered to normal men volunteers it has been stated that 60 minutes after the administration of SPC-5002 a 5 mg oral dose causes the decrease in blood-glucose of 28% in comparision to the starting value and after 90 minutes it reaches 33% (Table 7). Whereas Glibornuride employed in a dose 2.5 times as big on peak of its activity decreases the glucose blood level only of 19%. It can clearly be noticed that there is a positive correlation between the glycemic and insulin level curves. Both examined preparations cause a significant decrease in free fatty acids in blood. […] 60 and 90 minutes after the SPC-5002 administration, the blood-glycose level is decreased to 33 and 52% while in the Placebo group it is maintained in the range of 13-14%.
The comparison of glucose, insulin and free fatty acids concentration in
normal men after the oral administration of 5 mg of SPC-5002 or 12.5 mg

Structures are written as SMILES.

For `Cc1ccn(C(=O)NCCc2ccc(S(=O)(=O)NC(=O)NC3CCCCC3)cc2)n1` [SPC-5002, N-{4-[2-(3-methylpyrazole-1-carbonamide)-ethyl]-benzenesulphonyl}-N'-cyclohexylourea], in experiment [1], the ED30 amounted to 2.2 mg/kg. Moreover, the “effect on oxidizing phosphorylation” value in experiment [2] (0.05 nM) is listed as “no effect”. Moreover, the “% of inhibition, oxidizing phosphorylation” value was 0% in experiment [2] (concentration 0.05 n M); 15% in experiment [2] (concentration 0.1 n M); 21% in experiment [2] (concentration 0.3 n M); 38% in experiment [2] (concentration 0.5 n M); 63% in experiment [2] (concentration 0.7 n M); 74% in experiment [2] (concentration 1.0 n M). In addition, affinity in experiment [2] (rat liver mitochondria) was put at a Ki of 600 µM. The “decrease in blood-glucose vs starting value” is on record as 28% in experiment [3] (60 minutes) and 33% in experiment [3] (90 minutes). Moreover, the Glucose concentration in experiment [3] (0 mins (empty stomach)) came to 96.8 mg/100 cc; in experiment [3] (30 mins), 88.5 mg/100 cc; in experiment [3] (60 mins), 69.0 mg/100 cc; in experiment [3] (90 mins), 65.5 mg/100 cc; in experiment [3] (120 mins) it was 76.5 mg/100 cc; in experiment [3] (180 mins), 79.7 mg/100 cc.

The record behind these values is patent US4153710A, “N-(4-[2-(pyrazole-1-carbonamide)-ethyl]-benzenesulphonyl)-urea” (Starogardzkie Zaklady Farmaceutyczne POLFA, priority 1976, dated 1979).
